Laboratory results: patent US8481494B2, “Compounds for the treatment of diseases related to protein misfolding” (priority 2009, dated 2013)
In brackets after ≈: the same amount, converted by molar mass. Where two headings read alike, the source gives them in different places. Blank lines part the entries; values can stand above or below the compound they belong to. *1 amine or outer side, *2 acyl side, *3 side chain or, on linkers, in order; H or OH if unused. Where a SMILES comes first, the peptide text is derived from it. [ ]: non-standard residue; d: D form. The star is where a group is joined. X1 = O=C(c1cc([N+](=O)[O-])n[nH]1)*; X2 = O=C(c1cc(N[*:1])n[nH]1)[*:2]; AEEEA = NCCOCCOCCOCC(=O)O

Assays:
[1] = molecular target: T1, preformed Aβ(1-42) fibrils (Homo sapiens, UniProt P05067); assay: ThT equilibrium disaggregation assay of preformed fibrils; format: biochemical; settings: 33 μM Aβ42 preformed fibrils, 198 μM ligand, 10 mM PBS pH 7.3
T1 construct: Aβ(1-42)-peptide (Bachem, Bubendorf, Germany) was prepared in HFIP; purchased Bachem, Bubendorf
Excerpt: Starting from preformed fibrils, the disassembly process was also monitored with the full series of modified trimeric aminopyrazoles. […] In other words, little difference is observed between the end points of aggregation assays, in which the ligand inhibits de novo aggregation starting from monomeric Aβ molecules, and those experiments, which require disaggregation of preformed fibrils by externally added ligand. Experimental evidence is thus provided for the fact, that aminopyrazole ligands operate in a fully reversible fashion, and reach an open equilibrium when the thermodynamically most favorable complex is formed.
(§1) Thioflavin T (ThT) measurements were carried out in a 384-well plate (Nunc GmbH, Wiesbaden, Germany) in an InfiniTe 200 plate reader (Tecan GmbH, Crailsheim, Germany). Fluorescence intensity was measured at 37° C., 446 nm excitation wavelength (bandwidth 9 nm) and 490 nm emission wavelength with a bandwidth of 20 nm. Each data point was averaged over 40 lamp flashes. Each measurement cycle was started by shaking the sample carrier orbitally for 30 s at medium intensity to avoid settling of larger aggregates. The 384-well plate was covered with a transparent and DMSO-stable film (Nunc GmbH, Wiesbaden, Germany). Each single sample was composed of 33 μM Aβ(1-40) or rather Aβ(1-42) in 10 mM PBS (phosphate buffered saline), 10.7% DMSO, 10 μM ThT and 198 μM of the test compound. For graph representation emission values of fourfold samples were averaged. Each test compound was measured separately, both in 10 mM PBS and 10 mM PBS with ThT to exclude any potential interactions between ligand and ThT.
After that, 9.5 μL ThT (62.7 μM stock solution) was pipetted and the assay solution was briefly centrifugated. The ThT fluorescence was measured at λEx=446 nm and λEm=490 nm. For graph representation emission values of fourfold samples were averaged.

Aβ(1-42) = molecular target: T2, Aβ(1-42) (Homo sapiens, UniProt P05067); assay: ThT equilibrium inhibition assay of Aβ aggregation; format: biochemical; settings: for ThT fluorescence level, inhibition of aggregation: 33 μM Aβ42, 198 μM ligand, 10 mM PBS pH 7.3, 72 h
T2 construct: Aβ(1-42)-peptide (Bachem, Bubendorf, Germany) was prepared in HFIP; purchased Bachem, Bubendorf
Protocol: After 72 h, the aggregation process has reached a maximum in the absence or presence of any trimeric ligand, even for the slow Aβ (1-40) peptide. The respective equilibrium concentration is then indicated by the relative fluorescence intensity reached at the end point. The full series of new aminopyrazole trimer derivatives was subjected to ThT inhibition experiments and the final equilibrium was analyzed by comparison of the respective fluorescence intensities of intercalated dye at 482 nm (exc. at 442 nm). […] Their proposed mechanism of action is discussed within the next chapters together with all the other biophysical, biochemical as well as modeling data.
as §1
The ThT assay solution was briefly centrifugated and it was pipetted in a 384-well plate. The ThT fluorescence was measured at λEx=446 nm and λEm=490 nm. Each point is the average of quadruplication.

[2] = Solubility of the unprotected aminopyrazole trimers (stock solutions); settings: water (class a) or DMSO (class b)
Protocol: The ligands were dissolved in 100% DMSO as 4.95 mM stock solutions and were stored at −20° C.

[3] = Sedimentation of the pure ligand (self-association); format: physicochemical; settings: ligand itself
Protocol: (§2) In a standard FCS experiment a 5 nM Oregon-Green-labeled Aβ solution was prepared in PBS buffer with ˜3% DMSO. […] This is not surprising, because it comprises a flat arrangement of unpolar aromatics adorned with polar groups for extensive hydrogen bonding. Finally, TEM pictures were obtained from mature Aβ fibrils ([…]) as well as globular particles (3-30 nm) grown in the absence of aminopyrazole ligands.
Such an arrangement may also result in far-reaching conformational effects, indicated already be widening of the upper U-turn; these are now proposed to destroy the existing β-sheet (FIG. 12). The high positive charge of all five lysine residues requires the use of PBS with its high ionic strength for sedimentation experiments. […] Admittedly, their structures are somewhat reminiscent of the amphiphilic hybrid peptides (e.g., KLVFF-EEEEE) presented in the nineties for aggregation prevention by surface tension increase. […]
(§3) Sedimentation velocity centrifugation was performed in an XLA (BeckmanCoulter, Palo Alto, USA) equipped with absorption optics and a four hole titanium rotor. […] Radial scans were recorded at a resolution of 0.002 cm. Detection wavelength was chosen at 493 nm to observe endlabeled FITC or Oregon Green™ and to avoid background absorbance from the test compound.

Oregon-Green-labeled Aβ = molecular target: T3, Oregon-Green-labeled Aβ (Homo sapiens, UniProt P05067); assay: Sedimentation analysis (analytical ultracentrifugation) of Aβ with ligand; format: binding
T3 construct: aggregation mixtures of Aβ(1-42)/Aβ42-OG (17.5 nM/3.5 μM) in 10 mM NaPi, pH 7.4
Protocol: as §2
FIG. 6A to 6F show the results of sedimentation velocity centrifugation: s-value-distributions of Aβ samples in the presence of Trimer-OH (FIG. 6A, FIG. 6B, FIG. 6C) vs. Trim-TEG-OEt (FIG. 6D, FIG. 6E, FIG. 6F). […] FIG. 6B, FIG. 6E: s-value distributions of the control experiments as determined by 2D-SA and Monte Carlo analysis. FIG. 6C, FIG. 6F: s-value distributions of experiments with 200 μM Trimer derivative after 5 d of incubation as determined by 2D-SA and Monte Carlo analysis.
as §3
Sedimentation data were analyzed with UltraScan 9.4 (http://www.ultrascan.uthscsa.edu). […]

[4] = system: differentiated rat pheochromocytoma (PC-12) cells; assay: cells
Protocol: Next, to examine whether the aminopyrazole trimers could protect cell from Aβ42-induced neurotoxicity, cells were treated for […] with 10 μM Aβ(1-42), a concentration that produces 30 to 40% decrease in cell viability, in the absence or presence of 100 μM of each compound. The viability of the cells then was assessed using the MTT assay.
MTT viability assays. Cell viability assays were performed as described in Fradinger et al. (Fradinger et al., PNAS, 2008). Rat pheochromocytoma (PC-12) cells were maintained in F-12 nutrient mixture with Kaighn's modification (F-12K) (Gibco BRL, Carlsbad, Calif.) with 15% heat-inactivated horse serum and 2.5% FBS at 37° C. in an atmosphere of 5% CO2. For cell viability assays, cells were plated in 96-well plates at a density of 25,000 cells per well in differentiation media (F-12K, 0.5% FBS, […] nerve growth factor) and maintained for 48 h. Aβ42 was solubilized in a minimal amount of DMSO (Sigma) and then diluted in the F-12K media in the absence or presence of the compounds and then added to cells and incubated for 48 h at 37° C. The final Aβ42 concentration was always kept constant at 10 μM. The stock solutions of the compounds were prepared at 10 mM in DMSO and diluted in the F-12K media at the required concentration. Negative controls included DMSO at the same concentration as in the peptide solutions and media alone. A positive control was […] staurosporine as lethal dose which represented 100% reduction in cell viability, based on which the percentage viability of all of the experimental conditions was calculated. Cell viability was assessed quantitatively by the CellTiter 96 Non-Radioactive Cell Proliferation Assay (Promega). Briefly, 15 μl of 3-(4,5-dimethylthiazol-2-yl)-2,5-diphenyltetra-zolium bromide (MTT) dye solution was incubated with the cells for 3 h. Then 100 μl of solubilization/stop solution was added and the plates were incubated overnight in the dark to ensure complete solubilization. Plates were read by using a Synergy HT microplate reader (BioTek), and the absorbance at 570 nm (formazan product) minus the absorbance at 630 nm (background) was recorded. Corrected absorbance was used to calculate the percent cell viability from the experimental change (Amedia-Aexperimental) over the dynamic range (Amedia-Astaurosporine). At least three independent experiments with six replicates (n≧18) were carried out, and the results were averaged.
To determine the IC50 value of each of the compounds, dose-dependence MTT experiments with the compounds were conducted. Aβ42 was used at 10 μM and the compounds were used at 100, 30, 10, 3, 1 and 0.3 μM. Three independent experiments with six replicates (n≧18) were carried out, and results were averaged. The data for each compound was fitted to the following equation to get the IC50 values. y=Bottom+((Top−Bottom)/(1+10^(x-log(IC^50^))))
Top: the y value at which the top of the sigmoidal curve becomes parallel to the X-axis; Bottom: the y value at which the bottom of the sigmoidal curve becomes parallel to the X-axis.
Also, MTT viability assays were run with differentiated PC-12 cells.

T2 sequence (P05067 672-713 limits assumed): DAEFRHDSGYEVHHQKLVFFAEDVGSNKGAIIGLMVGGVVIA
T1 sequence (P05067 672-713 limits assumed): as above
T3 sequence (P05067 672-713 limits assumed): as above
T3 sequence (P05067 672-713 limits assumed): as above

ThT fluorescence level, disaggregation [1]: 20%
ThT fluorescence level, inhibition of aggregation (Aβ(1-42)): 20%
solubility: > 4.95 mM
SMILES: NCCCC[C@H](NC(=O)c1cc(NC(=O)c2cc(NC(=O)c3cc([N+](=O)[O-])n[nH]3)n[nH]2)n[nH]1)C(=O)N[C@@H](CCCCN)C(=O)N[C@@H](CCCCN)C(=O)N[C@@H](CCCCN)C(=O)N[C@@H](CCCCN)C(=O)NCC(=O)O [Trimer-KKKKKG-OH, 3-(3-(3-nitro-1H-pyrazole-5-carboxamido)-1H-pyrazole-5-carboxamido)-1H-pyrazole-5-carboxamido-(S)-lysinyl-(S)-lysinyl-(S)-lysinyl-(S)-lysinyl-(S)-lysinyl-(S)-glycine] (X1-[X2][X2]KKKKKG-OH)

solubility [2]: 0.2 to 4.95 mM (≈ 75.1 to 1860 µg/mL)
size of micelles formed by self-association of the ligand [3]: ~10 S
molecular weight reduction of Aβ aggregates (Oregon-Green-labeled Aβ; corresponding to decrease to 25 S): 50%
sedimentation coefficient of Aβ complex with ligand (Oregon-Green-labeled Aβ; dose-dependent decrease, pure Aβ above 50 S): 25 S
SMILES: O=C(O)c1cc(NC(=O)c2cc(NC(=O)c3cc([N+](=O)[O-])n[nH]3)n[nH]2)n[nH]1 [Trimer-OH, 3-(3-(3-Nitro-1H-pyrazole-5-carboxamido)-1H-pyrazole-5-carboxamido)-1H-pyrazole-5-carboxylic acid]

IC50 [4]: > 100 µM
solubility: 0.2 to 4.95 mM (≈ 240 to 5940 µg/mL)
SMILES: CC(C)C[C@H](NC(=O)[C@H](CCCCN)NC(=O)COCCOCCOCCNC(=O)c1cc(NC(=O)c2cc(NC(=O)c3cc([N+](=O)[O-])n[nH]3)n[nH]2)n[nH]1)C(=O)N[C@H](C(=O)N[C@@H](Cc1ccccc1)C(=O)N[C@@H](Cc1ccccc1)C(=O)O)C(C)C [Trimer-TEG-KLVFF-OH, 1-(3-(3-(3-Nitro-1H-pyrazole-5-carboxamido)-1H-pyrazole-5-carbox-amido)-1H-pyrazol-5-yl)-1-oxo-5,8,11-trioxa-2-azatridecan-13-carboxamido-(S)-lysinyl-(S)-leucinyl-(S)-valinyl-(S)-phenylalaninyl-(S)-phenylalanine] (X1-[X2][X2][AEEEA]KLVFF-OH)

SMILES: COC(=O)C(CCCCN)NC(=O)COCCOCCOCCNC(=O)c1cc(NC(=O)c2cc(NC(=O)c3cc([N+](=O)[O-])n[nH]3)n[nH]2)n[nH]1.O=C(O)C(F)(F)F (centres unmarked) [Trimer-TEG-Lys-OMe, Trifluoro-acetate5-methoxycarbonyl-5-(2-{2-[2-(2-{[5-({5-[(5-nitro-2H-pyrazole-3-carbonyl)-amino]-2H-pyrazole-3-carbonyl}-amino)-2H-pyrazole-3-carbonyl]-amino}-ethoxy)-ethoxy]ethoxy}-acetylamino)-pentyl-ammonium]
viability increase (rescue from Aβ toxicity) ([4]; PC-12 cells, 10 μM Aβ(1-42), 100 μM compound): > 40%
IC50 ([4]; read-out: IC50 of inhibition of Aβ-induced toxicity, PC-12 cells, MTT, Aβ42 10 μM, ligand 0.3-100 μM): 52.7 µM
ThT fluorescence level, disaggregation [1]: 20%
ThT fluorescence level, inhibition of aggregation (Aβ(1-42)): 20%
ThT values compared with the original trimer (Aβ(1-42); Aβ(1-42), in words): surpass the original trimer activity
